Counter-ions that a name gives are not always drawn.

The assay deals with T1, h-NK1 receptors (Homo sapiens, UniProt P25103).
T1 construct: expressed in transfected cells; host or cells: CHO cells (permanent expression), crude cell membranes
Put plainly: Evaluation of NK1 antagonist transport efficiency to the central nervous system using a h-NK1 receptor binding assay. Conditions: 5 min, brain extract of male SD rats 5 min after i.v. injection of test compound, CHO cell membranes expressing h-NK1, read-out: inhibition rate of 125I-BH-Substance P binding to h-NK1 receptors. How it is done:
A. Evaluation of NK1 Antagonist Transport Efficiency to the Cental Nervous System Using a h-NK1 Receptor Binding Assay
(1) Administration of Test Compound and Extraction of the Compound From Brain
Male SD rats were given an i.v. injection of a solution containing a test compound (1 mg/kg). 5 Min later the animals were anesthetized by ether, bled and perfused through the aorta ascendens with 20 ml of saline. The brain was rapidly removed, weighed and homogenized in 4 vol. ice-cold distilled water by using Polytoron (KINEMATICA). To extract the test compound, 500 μl of the homogenate, 100 μl of methanol, 500 μl of 0.1 N NaOH and 4 ml of ethyl acetate were mixed by shaking for 10 min at room temperature. The organic phase (2.5 ml) was recovered by centrifugation at 3,000 rpm for 10 min, dried and dissolved in dimethyl sulfoxide.
(2) h-NK1 Receptor Binding Assay
(a) Crude CHO Cell Membrane Preparation
CHO cells permanently expressing h-NK1 receptors were harvested and homogenized with a Dounce homogenizer at 4° C. in a buffer (0.25 M sucrose, 25 mM Tris-HCl (pH 7.4), 10 mM MgCl2, 1 mM EDTA, 5 μg/ml p-APMSF). The homogenate was centrifuged (500×g, 10 min), and the pellet was resuspended in the same buffer, homogenized, and centrifuged. The two supernatants were combined and centrifuged (100,000×g, 1 hour). The crude cell membranes thus isolated were resuspended in a buffer (25 MM Tris-HCl (pH 7.4), 10 mM MgCl2, 1 mM EDTA, 5 μg/ml p-APMSF) and stored at −80° C. until use.
(b) ^125I-BH-Substance P Binding to the Prepared Membrane
Cell membranes (6 μg/ml) were incubated with ^125I-BH-Substance P (0.1 nM) with or without the extracted compounds in 0.25 ml of a medium (50 mM Tris-HCl (pH 7.4), 5 mM MnCl2, 20 μg/ml chymrostatin, 40 μg/ml bacitracin, 4 μg/ml leupeptin, 5 μg/ml p-APMSF, 200 μg/ml BSA) at 22° C. for 90 min. At the end of the incubation period, the contents were quickly filtered through a Blue Mat 11740 filter (pretreated with 0.1% polyethylenimine for 3 hours prior to use) by using SKATRON Cell Harvester. The filter was then washed with a washing buffer (50 mM Tris-HCl (pH 7.4), 5 mM MnCl2) . The radioactivity was counted by using an auto gamma counter (Packard RIASTAR 5420A). All data presented are specific binding defined as that displaceable by 3 μM unlabeled Substance P.

T1 sequence (P25103 whole entry): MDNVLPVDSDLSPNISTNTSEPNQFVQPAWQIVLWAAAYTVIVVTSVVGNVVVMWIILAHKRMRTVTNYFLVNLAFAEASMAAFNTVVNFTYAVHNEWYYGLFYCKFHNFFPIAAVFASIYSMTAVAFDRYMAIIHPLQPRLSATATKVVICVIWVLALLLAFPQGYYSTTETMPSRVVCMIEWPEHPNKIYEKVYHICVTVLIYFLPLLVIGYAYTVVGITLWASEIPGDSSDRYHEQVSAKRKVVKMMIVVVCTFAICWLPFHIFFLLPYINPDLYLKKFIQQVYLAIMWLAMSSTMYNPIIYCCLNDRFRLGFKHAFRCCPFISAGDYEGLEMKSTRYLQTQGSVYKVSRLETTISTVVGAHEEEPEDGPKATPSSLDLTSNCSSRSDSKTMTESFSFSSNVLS

In the case of `Cc1ccc(C[C@@H]2CN(C/C=C/CNCc3cccnc3)CCN2C(=O)c2cc(C(F)(F)F)cc(C(F)(F)F)c2)cc1C` [82-(5), (2R)-1-[3,5-Bis(trifluoromethyl)benzoyl]-2-(3,4-dimethylbenzyl)-4-[(E)-N-(3-pyridylmethyl)-4-amino-2-butenyl]piperazine trihydrochloride], the inhibition – broadly, the change of the read-out against control, counted positive when it falls – at 1 mg/kg was > 80%.

On to `O=C(c1cc(C(F)(F)F)cc(C(F)(F)F)c1)N1CCN(CC#CCN2CCOCC2)C[C@H]1Cc1ccc2ccccc2c1` [Example 35, (2R)-1-[3,5-bis(trifluoromethyl)benzoyl]-4-(4-morpholino-2-butynyl)-2-(2-naphthylmethyl) piperazine dihydrochloride], for which the inhibition at 1 mg/kg is > 80%.

Regarding `O=C(c1cc(C(F)(F)F)cc(C(F)(F)F)c1)N1CCN(CCNCc2cccnc2)C[C@H]1Cc1ccc2ccccc2c1` [82-(7), (2R)-1-[3,5-Bis(trifluoromethyl)benzoyl]-2-(2-naphthylmethyl)-4-[N-(3-pyridylmethyl)-2-aminoethyl]piperazine trihydrochloride], the inhibition at 1 mg/kg was > 80%. With `Cc1ccc(C[C@@H]2CN(CCNCc3cccnc3)CCN2C(=O)c2cc(C(F)(F)F)cc(C(F)(F)F)c2)cc1C` [Example 67-(5), (2R)-1-[3,5-Bis(trifluoromethyl)benzoyl]-2-(3,4-dimethylbenzyl)-4-[2-(3-pyridylmethylamino)ethyl]piperazine trihydrochloride], the inhibition at 1 mg/kg is > 80%. Turning to `O=C(c1cc(C(F)(F)F)cc(C(F)(F)F)c1)N1CCN(C/C=C/CNCc2cccnc2)C[C@H]1Cc1ccc2ccccc2c1` [82-(10), (2R)-1-[3,5-Bis(trifluoromethyl)benzoyl]-2-(2-naphthylmethyl)-4-[(E)-N-(3-pyridylmethyl)-4-amino-2-butenyl]piperazine trihydrochloride], the inhibition at 1 mg/kg was > 80%. In the case of `O=C(c1cc(C(F)(F)F)cc(C(F)(F)F)c1)N1CCN(CCCCN2CCOCC2)C[C@H]1Cc1c[nH]c2ccccc12` [Example 73, (2R)-1-[3,5-bis(trifluoromethyl)benzoyl]-2-(1H-indol-3-ylmethyl)-4-(4-morpholinobutyl) piperazine dihydrochloride] it was > 80%. In the case of `O=C(c1cc(C(F)(F)F)cc(C(F)(F)F)c1)N1CCN(CCCN2CCSC2)C[C@H]1Cc1c[nH]c2ccccc12` [Example 44-(7), (2R)-4-[3-(Thiazolidin-3-yl)propyl]-1-[3,5-bis (trifluoromethyl)benzoyl]-2-(1H-indol-3-ylmethyl) piperazine dihydrochloride] it was > 80%; in that of `O=C(c1cc(C(F)(F)F)cc(C(F)(F)F)c1)N1CCN(CCCN2CCSCC2)C[C@H]1Cc1ccc(Cl)c(Cl)c1` [Example 44-(4), (2R)-1-[3,5-Bis(trifluoromethyl)benzoyl]-2-(3,4-dichlorobenzyl) -4-(3-thiomorpholinopropyl) piperazine dihydrochloride], > 80%. In the case of `CC(=O)c1ccc(C(=O)N2CCN(C(=O)c3cc(C(F)(F)F)cc(C(F)(F)F)c3)[C@H](Cc3ccc(C)c(C)c3)C2)cc1` [Example 11, (2R)-4-(4-acetylbenzoyl)-1-[3,5-bis (trifluoromethyl)benzoyl]-2-(3,4-dimethylbenzyl)piperazine] it was > 80%. For the compound `O=C(c1cc(C(F)(F)F)cc(C(F)(F)F)c1)N1CCN(CCCN2CCc3sccc3C2)C[C@H]1Cc1c[nH]c2ccccc12` [Example 26, (2R)-1-[3,5-Bis(trifluoromethyl)benzoyl]-2-(1H-indol-3-ylmethyl)-4-[3-(4,5,6,7-tetrahydrothieno[3,2-c]pyridin-5-yl)propyl]piperazine], the inhibition at 1 mg/kg is > 80%.

Turning to `O=C(c1cc(C(F)(F)F)cc(C(F)(F)F)c1)N1CCN(CCNN2CCOCC2)C[C@H]1Cc1ccc2ccccc2c1` [82-(8), (2R)-1-[3,5-Bis(trifluoromethyl)benzoyl]-2-(2-naphthylmethyl)-4-(N-morpholino-2-aminoethyl) piperazine dihydrochloride], the inhibition at 1 mg/kg is > 80%.

Values taken from patent US20020010182A1, “Piperazine derivatives as tachykinin antagonists” (FUJISAWA PHARMACEUTICAL CO., LTD., priority 1995, published 2002).
